From patent US8026218B2, “Bifunctional analgesic compounds for opioid receptor agonists and neurokinin-1 receptor antagonists” (The University of Arizona, priority 2006, dated 2011)
Where two headings read alike, the source gives them in different places. Peptide text beside a SMILES is read from it.

What was measured:
[1] = molecular target: T1, rat NK1 (rNK1) receptor (Rattus norvegicus, UniProt P14600); test: Radioligand competition binding, [3H]substance P, rNK1/CHO membranes; settings: for IC50: membranes from transfected CHO cells
T1 construct: expressed in transfected cells; host or cells: CHO (rNK-1/CHO cell line from Dr. James Krause)
T1 sequence (P14600 whole entry): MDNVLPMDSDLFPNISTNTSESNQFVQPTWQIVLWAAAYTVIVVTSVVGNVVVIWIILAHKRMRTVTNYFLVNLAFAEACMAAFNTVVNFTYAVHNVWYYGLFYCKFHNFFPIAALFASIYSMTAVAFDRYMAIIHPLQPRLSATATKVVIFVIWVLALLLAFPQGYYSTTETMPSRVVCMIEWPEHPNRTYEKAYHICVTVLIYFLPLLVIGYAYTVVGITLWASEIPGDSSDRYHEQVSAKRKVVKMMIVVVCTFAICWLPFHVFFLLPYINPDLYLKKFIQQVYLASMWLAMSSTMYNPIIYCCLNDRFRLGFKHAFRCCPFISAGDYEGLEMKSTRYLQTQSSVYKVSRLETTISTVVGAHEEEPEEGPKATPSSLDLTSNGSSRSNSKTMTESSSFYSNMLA

[2] = molecular target: T2, human δ opioid receptors (hDOR) (Homo sapiens, UniProt P41143); test: Radioligand competition binding, [3H]DPDPE, hDOR membranes; settings: for LogIC50, hDOR, [3H]DPDPE: membranes from transfected HN9.10 cells
T2 construct: expressed in transfected cells; host or cells: HN9.10 neuroblastoma cell line, pCDNA3, neomycin-selected clones
T2 sequence (P41143 whole entry): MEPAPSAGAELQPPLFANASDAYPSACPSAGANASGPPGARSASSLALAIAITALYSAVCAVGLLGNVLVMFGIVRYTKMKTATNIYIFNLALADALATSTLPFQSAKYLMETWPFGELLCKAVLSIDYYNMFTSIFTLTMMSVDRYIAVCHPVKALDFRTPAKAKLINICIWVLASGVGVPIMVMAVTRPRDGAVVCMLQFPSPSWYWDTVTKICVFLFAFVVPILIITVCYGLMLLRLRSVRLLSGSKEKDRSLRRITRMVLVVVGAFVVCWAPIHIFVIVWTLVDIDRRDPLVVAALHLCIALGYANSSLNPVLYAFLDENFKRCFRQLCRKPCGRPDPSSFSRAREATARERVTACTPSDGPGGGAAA

[3] = molecular target: T2, human δ opioid receptors (hDOR); test: [35S]GTP-γ-S binding assay, hDOR; format: biochemical
[4] = molecular target: T3, δ opioid receptors (MVD) (Mus musculus, UniProt P32300); test: Mouse isolated vas deferens (MVD) assay, opioid agonist
T3 construct: from tissue; host or cells: mouse (ICR) isolated vas deferens
T3 sequence (P32300 whole entry): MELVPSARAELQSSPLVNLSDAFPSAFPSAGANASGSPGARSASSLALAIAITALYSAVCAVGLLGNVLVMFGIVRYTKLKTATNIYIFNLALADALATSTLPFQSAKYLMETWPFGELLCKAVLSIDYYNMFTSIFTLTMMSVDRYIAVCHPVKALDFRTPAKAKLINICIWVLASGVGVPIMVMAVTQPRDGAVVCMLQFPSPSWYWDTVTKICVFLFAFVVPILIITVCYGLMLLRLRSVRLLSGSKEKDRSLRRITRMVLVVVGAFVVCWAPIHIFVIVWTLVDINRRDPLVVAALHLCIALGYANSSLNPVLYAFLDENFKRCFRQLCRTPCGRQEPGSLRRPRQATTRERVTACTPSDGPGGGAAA

[5] = molecular target: T4, rat μ opioid receptors (rMOR) (Rattus norvegicus, UniProt P33535); test: Radioligand competition binding, [3H]DAMGO, rMOR membranes
T4 construct: expressed in transfected cells; host or cells: HN9.10 neuroblastoma cell line, pCDNA3, neomycin-selected clones
T4 sequence (P33535 whole entry): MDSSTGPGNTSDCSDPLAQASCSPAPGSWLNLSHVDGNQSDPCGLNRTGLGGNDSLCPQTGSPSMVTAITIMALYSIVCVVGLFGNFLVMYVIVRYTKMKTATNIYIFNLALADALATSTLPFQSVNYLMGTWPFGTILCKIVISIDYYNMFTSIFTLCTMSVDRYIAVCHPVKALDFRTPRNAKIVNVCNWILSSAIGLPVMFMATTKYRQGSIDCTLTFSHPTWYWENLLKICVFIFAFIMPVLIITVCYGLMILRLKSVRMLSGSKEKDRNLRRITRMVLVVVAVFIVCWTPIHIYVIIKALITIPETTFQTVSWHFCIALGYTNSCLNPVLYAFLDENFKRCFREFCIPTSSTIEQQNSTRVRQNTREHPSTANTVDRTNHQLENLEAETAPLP

[6] = molecular target: T4, rat μ opioid receptors (rMOR); test: biochemical; format: biochemical
[7] = test system: μ opioid receptors (GPI); test: Guinea pig isolated ileum (GPI) assay, opioid agonist; parameters: GPI/LMMP Opioid(m) Agonist, % inh.: unit of the concentration uncertain; settings: for GPI/LMMP Opioid(m) Agonist, % inh.: at 1 (unit uncertain);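 as to all read-outs here: inhibition of electrically evoked contractions (0.1 Hz, 0.4 msec, supramaximal voltage) in organ baths at 37 °C, contraction height 3 min after each cumulative dose versus the 1 min before dosing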
Protocol: Guinea Pig Isolated Ileum Assay. […] These tissues were tied to gold chains with suture silk and mounted between platinum wire electrodes in 20 mL organ baths at a tension of 1 g and bathed in oxygenated (95:5 O2:CO2) Kreb's bicarbonate buffer at 37° C. and stimulated electrically (0.1 Hz, 0.4 msec duration) at supramaximal voltage. Following an equilibration period, compounds were added cumulatively to the bath in volumes of 14-60 μL until maximum inhibition was reached. A baseline PL-017 was constructed to determine tissue integrity and allow calculation of antagonist activity before opioid analog testing began.
For opioid data analysis, percentage inhibition was calculated using the average tissue contraction height for 1 min preceding the addition of the agonist divided by the contraction height 3 min after exposure to the dose of agonist. […] IC50 and Emax estimates were determined by computerized nonlinear least-squares analysis (the pharmacological statistics package FlashCalc: Dr. Michael Ossipov, University of Arizona, Tucson, Ariz.). […] A50 values represent the mean of not less than 4 tissues. A50 and Emax estimates were determined by computerized nonlinear least-squares analysis (FlashCalc).

[8] = molecular target: T5, Substance P receptors (guinea pig NK1) (Cavia porcellus, UniProt P30547); test: Guinea pig isolated ileum (GPI) assay with substance P stimulation in presence of 1 μM naloxone; settings: for activation at 1 µM: read-out: Substance P GPI agonist (A50), contraction relative to initial muscle contraction with KCl
T5 construct: from tissue; host or cells: guinea pig (Hartley) ileum LMMP, 1 μM naloxone present
T5 sequence (P30547 whole entry): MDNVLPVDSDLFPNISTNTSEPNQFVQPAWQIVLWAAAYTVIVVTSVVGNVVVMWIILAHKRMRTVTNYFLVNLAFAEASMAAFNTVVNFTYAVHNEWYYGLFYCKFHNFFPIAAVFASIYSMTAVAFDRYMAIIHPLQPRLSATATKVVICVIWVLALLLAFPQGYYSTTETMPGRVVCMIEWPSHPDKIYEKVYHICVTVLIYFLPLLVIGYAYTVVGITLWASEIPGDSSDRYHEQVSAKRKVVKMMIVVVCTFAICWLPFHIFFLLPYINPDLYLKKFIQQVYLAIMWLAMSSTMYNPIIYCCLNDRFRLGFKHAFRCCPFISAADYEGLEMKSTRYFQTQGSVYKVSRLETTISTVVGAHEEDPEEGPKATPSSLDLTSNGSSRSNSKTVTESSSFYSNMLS

[9] = molecular target: T6, human NK1 receptor (hNK1) (Homo sapiens, UniProt P25103); test: Radioligand competition binding, [3H]-Substance P, hNK1
T6 construct: expressed in transfected cells
T6 sequence (P25103 whole entry): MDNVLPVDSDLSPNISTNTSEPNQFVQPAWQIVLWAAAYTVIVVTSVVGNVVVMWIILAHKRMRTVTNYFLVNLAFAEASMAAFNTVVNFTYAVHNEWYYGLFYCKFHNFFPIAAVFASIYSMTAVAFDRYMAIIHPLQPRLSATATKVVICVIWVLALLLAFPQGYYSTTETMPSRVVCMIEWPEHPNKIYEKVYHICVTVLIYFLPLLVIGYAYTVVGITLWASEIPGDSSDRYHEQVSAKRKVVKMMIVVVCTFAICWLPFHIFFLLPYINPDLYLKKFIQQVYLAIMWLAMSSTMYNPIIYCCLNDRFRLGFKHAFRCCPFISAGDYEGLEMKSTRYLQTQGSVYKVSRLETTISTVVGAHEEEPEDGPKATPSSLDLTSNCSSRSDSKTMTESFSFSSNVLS

[10] = IC50, rNK1, Substance P radioligand
[11] = LogIC50, rNK1, Substance P radioligand
[12] = Substance P antagonist, GPI, Ke, in the presence of 1 μM naloxone
[13] = Table 39, concentration not given
[14] = read-out: EC50, hDOR, [35S]GTP-γ-S binding
[15] = read-out: Emax, hDOR, [35S]GTP-γ-S binding
[16] = read-out: GTP binding hDOR EC50
[17] = read-out: GTP binding hDOR Emax
[18] = read-out: GTP binding hDOR Emax (%)
[19] = Table 28, read-out: MVD Opioid (d) Agonist (IC50; nM)
[20] = Table 39, read-out: MVD opioid(delta) agonist (IC50; nM)
[21] = electrically stimulated isolated tissue, read-out: MVD (δ), IC50
[22] = Table 39, read-out: GTP binding rMOR Emax
[23] = Table 39, read-out: GPI/LMMP opioid(mu) agonist (IC50; nM)
[24] = Table 39, read-out: GTP binding hDOR Emax
[25] = Table 30, read-out: GPI/LMMP Opioid(m) Agonist (IC50; nM)

CC(C)C[C@H](NC(=O)[C@H](Cc1ccccc1)NC(=O)CNC(=O)[C@@H](C)NC(=O)[C@@H](N)Cc1ccc(O)cc1)C(=O)N[C@@H](Cc1c[nH]c2ccccc12)C(=O)OCc1cc(C(F)(F)F)cc(C(F)(F)F)c1 [NP37] (HELM PEPTIDE1{Y.[dA].G.F.L.W.[FC(F)(F)c1cc(CO[*:1])cc(C(F)(F)F)c1]}$$$$V2.0; N-terminus assumed)
Ki ([1]; Affinity (Ki, nM) rNK1, Table 32): 0.29 nM
Ki [2]: 2.9 nM
EC50 ([3]; Table 32, read-out: GTP hDOR EC50): 4.8 nM
Emax ([3]; Table 32, read-out: GTP hDOR EMax): 60%
IC50 [4]: 25.7 nM
Ki [5]: 23.3 nM
EC50 ([6]; Table 32, read-out: GTP rMOR EC50): 14 nM
Emax ([6]; Table 32, read-out: GTP rMOR EMax): 54%

C[C@@H](NC(=O)[C@@H](N)Cc1ccc(O)cc1)C(=O)N[C@@H](Cc1c[nH]c2ccccc12)C(=O)OCc1cc(C(F)(F)F)cc(C(F)(F)F)c1 [NP43]
Ki ([1]; Ki (nM) rNK1, Table 33): 2.94 nM
GPI μ-agonist, % at 1 μM ([7]; Table 36, at 1 μM): 3.3% at 1 μM
Kb ([8]; GPI SP-antagonist Ke (nM), Table 36): 49.4 nM
Ki ([2]; Table 33, read-out: Ki (nM) hDOR): 100 nM
EC50 ([3]; Table 33, read-out: GTP EC50 (nM) hDOR): 90.9 nM
MVD δ-agonist, % at 1 μM ([4]; Table 36, at 1 μM): 5.5% at 1 μM
Ki ([5]; Table 33, read-out: Ki (nM) rMOR): 178 nM
EC50 ([6]; Table 33, read-out: GTP EC50 (nM) rMOR): 168 nM
Ki [9]: 0.004 nM

CC(C)C[C@H](NC(=O)[C@@H]1CCCN1C(=O)[C@H](Cc1ccccc1)NC(=O)[C@H](Cc1ccccc1)NC(=O)CNC(=O)[C@@H](C)NC(=O)[C@@H](N)Cc1ccc(O)cc1)C(=O)N[C@@H](Cc1c[nH]c2ccccc12)C(=O)OCc1cc(C(F)(F)F)cc(C(F)(F)F)c1 [TY003, H-Tyr-D-Ala-Gly-Phe-Phe-Pro-Leu-Trp-O-3,5-Bzl(CF3)2]
IC50 [1, 10]: 19.3 nM
IC50 [1, 11]: 19.1 nM
GPI/LMMP Opioid(m) Agonist, % inh. ([7]; Table 28): 7% inh. at 1 mM
GPI/LMMP opioid(mu) Antagonist ([7]; Table 39): none
GPI/LMMP opioid(mu) agonist, % at 1 uM ([7]; Table 39, at 1 uM): 6.6% @ 1 uM
GPI (μ), effect at single concentration ([7]; at 1 μM): 7% at 1 μM^b
Kb [8, 12]: 14.4 ± 4.9 nM
GPI/LMMP SP Agonist (IC50; nM) [8, 13]: none
activation at 1 µM [8]: 0%
Ki [2]: 14.6 nM
Ki(μ)/Ki(δ) ([2]; binding, rMOR vs hDOR): 1.9
LogIC50, hDOR, [3H]DPDPE [2]: −7.50 ± 0.14
Ki(μ)/Ki(δ) [3]: 2.8
LogEC50, hDOR, [35S]GTP-γ-S binding [3]: −7.68 ± 0.20
EC50 [3, 14]: 20.8 nM
Emax [3, 15]: 39%
EC50 [3, 16]: 20.8 nM
Emax [3, 17]: 39%
Emax [3, 18]: 39%
IC50 [4, 19]: 905 nM
IC50 [4, 20]: 905 nM
IC50 [4, 21]: 905 ± 186 nM
Ki ([5]; Table 27, read-out: Affinity rMOR (Ki; nM)): 28.3 nM
Ki ([5]; Table 39, read-out: Affinity rMOR (Ki; nM)): 28.3 nM
LogIC50, rMOR, [3H]DAMGO ([5]; membranes from transfected HN9.10 cells): −7.22 ± 0.10
Ki ([5]; read-out: Ki, rMOR, [3H]DAMGO): 28.3 nM
LogEC50, rMOR, [35S]GTP-γ-S binding [6]: −7.23 ± 0.18
EC50 ([6]; Table 27, read-out: GTP binding rMOR EC50): 58.7 nM
Emax ([6]; Table 27, read-out: GTP binding rMOR Emax (%)): 36.3%
EC50 ([6]; Table 39, read-out: GTP binding rMOR EC50): 58.7 nM
Emax [6, 22]: 36.3%
Emax ([6]; net total bound/basal binding × 100, read-out: Emax, rMOR, [35S]GTP-γ-S binding): 41%
EC50 ([6]; read-out: EC50, rMOR, [35S]GTP-γ-S binding): 58.7 nM

CCCC[C@@H](C(=O)N1CCC[C@H]1C(=O)N[C@@H](CC(C)C)C(=O)N[C@@H](Cc1c[nH]c2ccccc12)C(=O)OCc1cc(C(F)(F)F)cc(C(F)(F)F)c1)N(C)C(=O)[C@H](Cc1ccccc1)NC(=O)CNC(=O)[C@@H](C)NC(=O)[C@@H](N)Cc1ccc(O)cc1 [TY019, H-Tyr-D-Ala-Gly-Phe-N-Me-Nle-Pro-Leu-Trp-O-3,5-Bzl(CF3)2]
IC50 [1, 10]: 135 nM
IC50 [1, 11]: 112 nM
GPI/LMMP Opioid(m) Agonist, % inh. ([7]; Table 28): 12% inh. at 1 mM
GPI/LMMP opioid(mu) agonist, % [7, 13]: 11.90%
GPI (μ), effect at single concentration ([7]; at 1 μM): 12% at 1 μM^b
IC50 [8]: 4.6 nM
Kb [8, 12]: 4.6 ± 1.2 nM
GPI/LMMP SP Agonist, % inh. ([8]; Table 28): 2% inh. at 1 mM
GPI/LMMP SP Agonist, % @ 1 uM ([8]; Table 39, @ 1 uM): 1.6%@ 1 uM
activation at 1 µM [8]: 2%
LogIC50, hDOR, [3H]DPDPE [2]: −6.79 ± 0.13
LogEC50, hDOR, [35S]GTP-γ-S binding [3]: −6.44 ± 0.27
EC50 [3, 14]: 364 nM
Emax [3, 15]: 316%
EC50 [3, 16]: 364 nM
Emax [3, 17]: 283%
Emax [3, 18]: 283%
IC50 [4, 19]: 188 nM
IC50 [4, 20]: 188 nM
IC50 [4, 21]: 188 ± 21 nM

CC(C)C[C@H](NC(=O)[C@@H]1CCCN1C(=O)[C@H](CC[S+](C)[O-])NC(=O)[C@H](Cc1ccccc1)NC(=O)CNC(=O)[C@@H](C)NC(=O)[C@@H](N)Cc1ccc(O)cc1)C(=O)N[C@@H](Cc1c[nH]c2ccccc12)C(=O)OCc1cc(C(F)(F)F)cc(C(F)(F)F)c1 (stereo partly drawn) [TY023, H-Tyr-D-Ala-Gly-Phe-Met(O)-Pro-Leu-Trp-O-3,5-Bzl(CF3)2]
IC50 [1, 10]: 54.5 nM
Ki ([1]; Ki, rNK1, text): 54.5 nM
Ki ([1]; Table 39, read-out: Affinity rNK1 (Ki; nM)): 0.2 nM
IC50 ([7]; Table 28, read-out: GPI/LMMP Opioid(m) Agonist (IC50; nM)): 154 nM
IC50 [7, 23]: 154 nM
IC50 ([7]; electrically stimulated isolated tissue, read-out: GPI (μ), IC50): 154 nM
Kb [8, 12]: 7.8 ± 4 nM
LogIC50, hDOR, [3H]DPDPE [2]: −7.92 ± 0.04
Ki ([2]; read-out: Ki, hDOR, [3H]DPDPE): 4.8 nM
LogEC50, hDOR, [35S]GTP-γ-S binding [3]: −8.73 ± 0.20
EC50 ([3]; Table 27, read-out: GTP binding hDOR EC50): 1.8 nM
Emax ([3]; Table 27, read-out: GTP binding hDOR Emax (%)): 52.8%
EC50 ([3]; Table 39, read-out: GTP binding hDOR EC50): 1.8 nM
Emax [3, 24]: 52.8%
Emax ([3]; net total bound/basal binding × 100, read-out: Emax, hDOR, [35S]GTP-γ-S binding): 53%
EC50 [3, 14]: 1.8 nM
IC50 [4, 19]: 33 nM
IC50 [4, 20]: 33 nM
IC50 [4, 21]: 33 nM

CSCC[C@H](NC(=O)[C@H](Cc1ccccc1)NC(=O)CNC(=O)[C@@H](C)NC(=O)[C@@H](N)Cc1c(C)cc(O)cc1C)C(=O)N1CCC[C@H]1C(=O)N[C@@H](CC(C)C)C(=O)N[C@@H](Cc1c[nH]c2ccccc12)C(=O)NCc1cc(C(F)(F)F)cc(C(F)(F)F)c1 [TY032]
IC50 [7, 25]: 18.6 nM
IC50 [7, 23]: 18.6 nM
GPI/LMMP Substance P Agonist (IC50; nM) ([8]; Table 30): None
GPI/LMMP SP Agonist (IC50; nM) ([8]; Table 39, at 100 nM): none
Ki [2]: 0.12 nM
EC50 ([3]; GTP binding hDOR EC50): 1.2 nM
Emax [3, 17]: 24%
IC50 [4]: 1.82 nM
Emax [6, 22]: 74%
Ki [9]: 0.008 nM

CSCC[C@H](NC(=O)[C@H](Cc1ccccc1)NC(=O)CNC(=O)[C@@H](C)NC(=O)[C@@H](N)Cc1c(C)cc(O)cc1C)C(=O)N1CCC[C@H]1C(=O)N[C@@H](CC(C)C)C(=O)N[C@@H](Cc1c[nH]c2ccccc12)C(=O)NCc1ccccc1 [TY034]
Ki ([1]; Affinity rNK1 (Ki; nM), Table 39): 317 nM
IC50 [7, 25]: 11.4 nM
IC50 [7, 23]: 11.4 nM
Kb ([8]; GPI/LMMP Substance P Antagonist (Ke; nM), Table 30): 36.9 nM
GPI/LMMP Substance P Agonist (IC50; nM) ([8]; Table 30): None
GPI/LMMP SP Agonist (IC50; nM) ([8]; Table 39, at 100 nM): none
Ki [2]: 0.1 nM
Emax [3, 24]: 21%
IC50 [4]: 6.85 nM
Ki [5]: 0.14 nM
Emax [6, 22]: 58%

CCCC[C@H](NC(=O)[C@H](Cc1ccccc1)NC(=O)CNC(=O)[C@@H](C)NC(=O)[C@@H](N)Cc1c(C)cc(O)cc1C)C(=O)N1CCC[C@H]1C(=O)N[C@@H](CC(C)C)C(=O)N[C@@H](Cc1c[nH]c2ccccc12)C(=O)N(C)Cc1cc(C(F)(F)F)cc(C(F)(F)F)c1 [TY052]
Ki ([2]; Table 31, read-out: Affinity hDOR (Ki; nM)): 0.46 nM
Ki ([2]; Table 39, read-out: Affinity hDOR (Ki; nM)): 0.46 nM
Ki ([9]; Table 31, read-out: Affinity hNK1 (Ki; nM)): 0.21 nM
Ki ([9]; Table 39, read-out: Affinity hNK1 (Ki; nM)): 0.21 nM
